Source: ChEMBL document CHEMBL1156586, “Structure-activity relationship studies of permeability modulating peptide AT-1002” (Bioorg Med Chem Lett, 2008)
*1 amine or outer side, *2 acyl side, *3 side chain or, on linkers, in order; H or OH if unused. Where a SMILES comes first, the peptide text is derived from it. Bridges are numbered along the chain shown (N, C = ends). Roman numbers before positions name the chains, in order. [ ]: non-standard residue; d: D form. X1 = O=C([C@H](/C=C/c1ccccc1)N[*:1])[*:2]; Leu(4,5-dehydro) = C=C(C)C[C@H](N)C(=O)O; Phe(4-CN) = N#Cc1ccc(C[C@H](N)C(=O)O)cc1; Phe(3-Me) = Cc1cccc(C[C@H](N)C(=O)O)c1; Met(O2) = CS(=O)(=O)CC[C@H](N)C(=O)O; Ala(cPr) = N[C@@H](CC1CC1)C(=O)O; 2Pal = N[C@@H](Cc1ccccn1)C(=O)O; Met(O) = CS(=O)CC[C@H](N)C(=O)O; 2Thi = N[C@@H](Cc1cccs1)C(=O)O; Cha = N[C@@H](CC1CCCCC1)C(=O)O; Tle = CC(C)(C)[C@H](N)C(=O)O; Dab = NCC[C@H](N)C(=O)O; Nva = CCC[C@H](N)C(=O)O; Abu = CC[C@H](N)C(=O)O

Experiments:
Caco-2 [1] = assay: Effect on integrity in human Caco-2 cell monolayers assessed as transepithelial resistance by epithelial voltohmmeter relative to control; type: ADME, cell-based; set-up: concentration or dose not given beside the values
Caco-2 [2] = assay: Permeability from apical to basolateral side of human Caco-2 cell monolayers assessed as increase in lucifer yellow flux at 7.0 mM relative to untreated control; type: ADME, cell-based; conditions: caco-2, 7000 µM

Structure (SMILES)	Activity (Caco-2 [1]) [%]	fold change (FC) (Caco-2 [2])
CC[C@H](C)[C@H](NC(=O)[C@H](Cc1ccccn1)NC(=O)[C@@H](N)Cc1ccccc1)C(=O)NCC(=O)N[C@@H](CCCNC(=N)N)C(=O)N[C@@H](CC(C)C)C(=O)O (H-F[2Pal]IGRL-OH)	148	0.5
CC[C@H](C)[C@H](NC(=O)[C@H](CS)NC(=O)[C@@H](N)Cc1ccccc1)C(=O)NCC(=O)N[C@@H](CCCNC(=N)N)C(=O)O (H-FCIGR-OH)	21	31
CC[C@H](C)[C@H](NC(=O)[C@H](Cc1cnc[nH]1)NC(=O)[C@@H](N)Cc1ccccc1)C(=O)NCC(=O)N[C@@H](CCCNC(=N)N)C(=O)N[C@@H](CC(C)C)C(=O)O (H-FHIGRL-OH)	102	1
CC[C@H](C)[C@H](NC(=O)[C@H](CSSC[C@H](NC(=O)[C@@H](N)Cc1ccccc1)C(=O)N[C@H](C(=O)NCC(=O)N[C@@H](CCCNC(=N)N)C(=O)N[C@@H](CC(C)C)C(=O)O)[C@@H](C)CC)NC(=O)[C@@H](N)Cc1ccccc1)C(=O)NCC(=O)N[C@@H](CCCNC(=N)N)C(=O)N[C@@H](CC(C)C)C(=O)O (I: H-FCIGRL-OH / II: H-FCIGRL-OH; disulfide I:2-II:2)	137	0.7
CC[C@H](C)[C@H](NC(=O)[C@H](Cc1cccc(C)c1)NC(=O)[C@@H](N)Cc1ccccc1)C(=O)NCC(=O)N[C@@H](CCCNC(=N)N)C(=O)N[C@@H](CC(C)C)C(=O)O (H-F[Phe(3-Me)]IGRL-OH)	101	0.6
CC[C@H](C)[C@H](NC(=O)[C@H](CC[S+](C)[O-])NC(=O)[C@@H](N)Cc1ccccc1)C(=O)NCC(=O)N[C@@H](CCCNC(=N)N)C(=O)N[C@@H](CC(C)C)C(=O)O (stereo partly specified) (H-F[Met(O)]IGRL-OH)	106	1.1
CC[C@H](C)[C@H](NC(=O)[C@H](Cc1ccc(C#N)cc1)NC(=O)[C@@H](N)Cc1ccccc1)C(=O)NCC(=O)N[C@@H](CCCNC(=N)N)C(=O)N[C@@H](CC(C)C)C(=O)O (H-F[Phe(4-CN)]IGRL-OH)	118	0.3
CC[C@H](C)[C@H](N)C(=O)NCC(=O)N[C@@H](CCCNC(=N)N)C(=O)N[C@@H](CC(C)C)C(=O)O (H-IGRL-OH)	70	0.9
CC[C@H](C)[C@H](NC(=O)[C@@H](NC(=O)[C@@H](N)Cc1ccccc1)C(C)C)C(=O)NCC(=O)N[C@@H](CCCNC(=N)N)C(=O)N[C@@H](CC(C)C)C(=O)O (H-FVIGRL-OH)	50	5.7
C=CC[C@H](NC(=O)[C@@H](N)Cc1ccccc1)C(=O)N[C@H](C(=O)NCC(=O)N[C@@H](CCCNC(=N)N)C(=O)N[C@@H](CC(C)C)C(=O)O)[C@@H](C)CC	20	103
CC[C@H](C)[C@H](NC(=O)[C@@H](NC(=O)[C@@H](N)Cc1ccccc1)[C@@H](C)O)C(=O)NCC(=O)N[C@@H](CCCNC(=N)N)C(=O)N[C@@H](CC(C)C)C(=O)O (H-FTIGRL-OH)	66	3.9
CC[C@H](C)[C@H](NC(=O)[C@@H](NC(=O)[C@@H](N)Cc1ccccc1)C(C)(C)C)C(=O)NCC(=O)N[C@@H](CCCNC(=N)N)C(=O)N[C@@H](CC(C)C)C(=O)O (H-F[Tle]IGRL-OH)	35	6.7
CC[C@H](C)[C@H](NC(=O)[C@H](Cc1cccs1)NC(=O)[C@@H](N)Cc1ccccc1)C(=O)NCC(=O)N[C@@H](CCCNC(=N)N)C(=O)N[C@@H](CC(C)C)C(=O)O (H-F[2Thi]IGRL-OH)	119	1.4
CC[C@H](C)[C@H](NC(=O)[C@H](Cc1ccc(O)cc1)NC(=O)[C@@H](N)Cc1ccccc1)C(=O)NCC(=O)N[C@@H](CCCNC(=N)N)C(=O)N[C@@H](CC(C)C)C(=O)O (H-FYIGRL-OH)	118	0.6
CC[C@H](C)[C@H](NC(=O)[C@H](CO)NC(=O)[C@@H](N)Cc1ccccc1)C(=O)NCC(=O)N[C@@H](CCCNC(=N)N)C(=O)N[C@@H](CC(C)C)C(=O)O (H-FSIGRL-OH)	94	2.1
CCC[C@H](NC(=O)[C@@H](N)Cc1ccccc1)C(=O)N[C@H](C(=O)NCC(=O)N[C@@H](CCCNC(=N)N)C(=O)N[C@@H](CC(C)C)C(=O)O)[C@@H](C)CC (H-F[Nva]IGRL-OH)	98	1.6
CC[C@H](C)[C@H](NC(=O)[C@H](CCN)NC(=O)[C@@H](N)Cc1ccccc1)C(=O)NCC(=O)N[C@@H](CCCNC(=N)N)C(=O)N[C@@H](CC(C)C)C(=O)O (H-F[Dab]IGRL-OH)	94	2.1

Structure (SMILES)	Activity (Caco-2 [1]) [%]	fold change (FC) (Caco-2 [2])
CC[C@H](C)[C@H](NC(=O)[C@H](CC1CC1)NC(=O)[C@@H](N)Cc1ccccc1)C(=O)NCC(=O)N[C@@H](CCCNC(=N)N)C(=O)N[C@@H](CC(C)C)C(=O)O (H-F[Ala(cPr)]IGRL-OH)	111	0.6
C=CC[C@@H](NC(=O)[C@@H](N)Cc1ccccc1)C(=O)N[C@H](C(=O)NCC(=O)N[C@@H](CCCNC(=N)N)C(=O)N[C@@H](CC(C)C)C(=O)O)[C@@H](C)CC	130	0.8
CC[C@H](C)[C@H](NC(=O)[C@H](CS)NC(=O)[C@@H](N)Cc1ccccc1)C(=O)NCC(=O)N[C@@H](CCCNC(=N)N)C(=O)N[C@@H](CC(C)C)C(=O)O (H-FCIGRL-OH)	11	52
CC[C@H](C)[C@H](NC(=O)[C@H](CCS(C)(=O)=O)NC(=O)[C@@H](N)Cc1ccccc1)C(=O)NCC(=O)N[C@@H](CCCNC(=N)N)C(=O)N[C@@H](CC(C)C)C(=O)O (H-F[Met(O2)]IGRL-OH)	110	0.7
CC[C@H](C)[C@H](NC(=O)[C@H](CCCNC(=N)N)NC(=O)[C@@H](N)Cc1ccccc1)C(=O)NCC(=O)N[C@@H](CCCNC(=N)N)C(=O)N[C@@H](CC(C)C)C(=O)O (H-FRIGRL-OH)	102	2.2
CC[C@H](C)[C@H](NC(=O)[C@H](/C=C/c1ccccc1)NC(=O)[C@@H](N)Cc1ccccc1)C(=O)NCC(=O)N[C@@H](CCCNC(=N)N)C(=O)N[C@@H](CC(C)C)C(=O)O (H-F[X1]IGRL-OH)	113	1
CC[C@H](C)[C@H](NC(=O)[C@H](CC(C)C)NC(=O)[C@@H](N)Cc1ccccc1)C(=O)NCC(=O)N[C@@H](CCCNC(=N)N)C(=O)N[C@@H](CC(C)C)C(=O)O (H-FLIGRL-OH)	121	1
CC[C@H](NC(=O)[C@@H](N)Cc1ccccc1)C(=O)N[C@H](C(=O)NCC(=O)N[C@@H](CCCNC(=N)N)C(=O)N[C@@H](CC(C)C)C(=O)O)[C@@H](C)CC (H-F[Abu]IGRL-OH)	96	1.1
CC[C@H](C)[C@H](NC(=O)[C@H](CC(=O)O)NC(=O)[C@@H](N)Cc1ccccc1)C(=O)NCC(=O)N[C@@H](CCCNC(=N)N)C(=O)N[C@@H](CC(C)C)C(=O)O (H-FDIGRL-OH)	148	0.7
CC[C@H](C)[C@H](NC(=O)[C@H](CS)NC(=O)[C@@H](N)Cc1ccccc1)C(=O)NCC(=O)O (H-FCIG-OH)	103	2.2
C=C(C)C[C@H](NC(=O)[C@@H](N)Cc1ccccc1)C(=O)N[C@H](C(=O)NCC(=O)N[C@@H](CCCNC(=N)N)C(=O)N[C@@H](CC(C)C)C(=O)O)[C@@H](C)CC (H-F[Leu(4,5-dehydro)]IGRL-OH)	115	1.9
CC[C@H](C)[C@H](NC(=O)[C@H](CCC(N)=O)NC(=O)[C@@H](N)Cc1ccccc1)C(=O)NCC(=O)N[C@@H](CCCNC(=N)N)C(=O)N[C@@H](CC(C)C)C(=O)O (H-FQIGRL-OH)	112	1.5
CC[C@H](C)[C@H](NC(=O)[C@H](CC1CCCCC1)NC(=O)[C@@H](N)Cc1ccccc1)C(=O)NCC(=O)N[C@@H](CCCNC(=N)N)C(=O)N[C@@H](CC(C)C)C(=O)O (H-F[Cha]IGRL-OH)	68	2.1
CC[C@H](C)[C@H](NC(=O)[C@H](CCC(=O)O)NC(=O)[C@@H](N)Cc1ccccc1)C(=O)NCC(=O)N[C@@H](CCCNC(=N)N)C(=O)N[C@@H](CC(C)C)C(=O)O (H-FEIGRL-OH)	104	1.3
CC[C@H](C)[C@H](NC(=O)[C@H](CCCCN)NC(=O)[C@@H](N)Cc1ccccc1)C(=O)NCC(=O)N[C@@H](CCCNC(=N)N)C(=O)N[C@@H](CC(C)C)C(=O)O (H-FKIGRL-OH)	110	0.4
CC[C@H](C)[C@H](NC(=O)[C@H](CC(N)=O)NC(=O)[C@@H](N)Cc1ccccc1)C(=O)NCC(=O)N[C@@H](CCCNC(=N)N)C(=O)N[C@@H](CC(C)C)C(=O)O (H-FNIGRL-OH)	83	1.5
